The values that follow are results of earlier work, collected in patent US20040120985A1, “Food product for increasing the cognitive functional capacity” (priority 2001, published 2004).

Series [1] concerns cognitive functional capacity. The note with it: individuals older than 40 years, 100 mg to 300 mg per day.
The conditions of series [2]: oral administration.
For series [3], the system named is aging brain. The note with it: animal experimental studies.

Consider phosphatidyl serine, for which, in series [1], the cognitive functional capacity result is “increased”. In addition, in series [2], the bioavailability result is listed as “good”. Further, the “passage of the blood-brain barrier” value in series [2] (after passing through the liver) was “crosses the blood-brain barrier”. Further, in series [3], the “ATPase-dependent ion transport via the cell membrane” value was “improves the ATPase-dependent ion transport via the cell membrane”, the “age-related breakdown of the receptors for the nerve growth factor” value is “partially prevents the age-related breakdown of the receptors for the nerve growth factor”, the “cholesterol/phospholipid ratio in the aging brain” value is given as “normalizes the cholesterol/phospholipid ratio in the aging brain” and the neuron atrophy entry is on record as “protects against neuron atrophy”. Moreover, in series [3], the “protein kinase C balance” value is listed as “normalizes the protein kinase C balance”. In series [3] (effect not identified for other phospholipids), the “formation of nerve growth factors” value was “promotes the formation of nerve growth factors”.
